Source: PubChem BioAssay AID328 (DTP/NCI, 2004)
Several values for one entry are separate records, joined by “and”; a condition that tells them apart may be missing. Equal values may be shown once. Inconclusive results and toxic doses are left out.

System: BDF1 mice, P388 leukemia ip, median survival T/C
Assay: NCI In Vivo Anticancer Drug Screen. Data for tumor model P388 Leukemia (intraperitoneal) in B6D2F1 (BDF1) mice
Details: endpoint: median survival time, higher = longer survival
Procedure, shortened: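 T/C = treated-group survival ÷ vehicle-control survival; tumour transplanted into mice before dosing.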

[1] = dose: 100.0 mg/kg/injection, schedule: Q04DX003 (ip), vehicle: saline with Tween-80
[2] = dose: 200.0 mg/kg/injection, schedule: Q04DX003 (ip), vehicle: saline with Tween-80
[3] = dose: 6.25 mg/kg/injection, schedule: Q01DX009 (ip), vehicle: saline with Tween-80
[4] = dose: 50.0 mg/kg/injection, schedule: Q01DX009 (ip), vehicle: saline with Tween-80
[5] = dose: 100.0 mg/kg/injection, schedule: Q01DX009 (ip), vehicle: saline with Tween-80
[6] = dose: 200.0 mg/kg/injection, schedule: Q01DX009 (ip), vehicle: saline with Tween-80
[7] = dose: 12.5 mg/kg/injection, schedule: Q01DX009 (ip), vehicle: saline with Tween-80
[8] = dose: 100.0 mg/kg/injection, schedule: Q04DX003 (ip), vehicle: saline
[9] = dose: 200.0 mg/kg/injection, schedule: Q04DX003 (ip), vehicle: saline
[10] = dose: 400.0 mg/kg/injection, schedule: Q04DX003 (ip), vehicle: saline
[11] = dose: 25.0 mg/kg/injection, schedule: Q04DX003 (ip), vehicle: water
[12] = dose: 50.0 mg/kg/injection, schedule: Q04DX003 (ip), vehicle: water
[13] = dose: 100.0 mg/kg/injection, schedule: Q04DX003 (ip), vehicle: water
[14] = dose: 12.5 mg/kg/injection, schedule: Q01DX009 (ip), vehicle: water
[15] = dose: 25.0 mg/kg/injection, schedule: Q01DX009 (ip), vehicle: water
[16] = dose: 50.0 mg/kg/injection, schedule: Q01DX009 (ip), vehicle: water

SMILES: COc1c2c(c(OC(C)=O)c3c1C(=O)c1ccccc1C3=O)CCCC2
- T/C (dose: 6.25 mg/kg/injection, schedule: Q01DX001 (ip), vehicle: saline): 115 % of control
- T/C (dose: 12.5 mg/kg/injection, schedule: Q01DX001 (ip), vehicle: saline): 115 % of control
- T/C (dose: 25.0 mg/kg/injection, schedule: Q01DX001 (ip), vehicle: saline): 115 % of control
- T/C (dose: 50.0 mg/kg/injection, schedule: Q01DX001 (ip), vehicle: saline): 115 % of control
- T/C (dose: 100.0 mg/kg/injection, schedule: Q01DX001 (ip), vehicle: saline): 115 % of control

SMILES: Cc1c(C)c2c(N)c3ccccc3nc2c2ccccc12
- T/C (dose: 12.5 mg/kg/injection, schedule: Q01DX001 (ip), vehicle: saline with Tween-80): 97 % of control
- T/C (dose: 25.0 mg/kg/injection, schedule: Q01DX001 (ip), vehicle: saline with Tween-80): 100 % of control and 117 % of control
- T/C (dose: 50.0 mg/kg/injection, schedule: Q01DX001 (ip), vehicle: saline with Tween-80): 105 % of control

SMILES: CCN(C(=O)c1ccc(C(=O)N(CC)c2ccccc2)cc1)c1ccccc1
- T/C [1]: 100 % of control
- T/C [2]: 91 % of control

SMILES: CCOC(=O)CN1C=C(C(=O)c2cc3ccccc3[nH]2)CCC1
- T/C (dose: 0.06 mg/kg/injection, schedule: Q01DX009 (ip), vehicle: saline): 105 % of control
- T/C (dose: 0.12 mg/kg/injection, schedule: Q01DX009 (ip), vehicle: saline): 105 % of control
- T/C (dose: 0.25 mg/kg/injection, schedule: Q01DX009 (ip), vehicle: saline): 105 % of control
- T/C (dose: 0.5 mg/kg/injection, schedule: Q01DX009 (ip), vehicle: saline): 100 % of control
- T/C (dose: 1.0 mg/kg/injection, schedule: Q01DX009 (ip), vehicle: saline): 105 % of control
- T/C (dose: 2.0 mg/kg/injection, schedule: Q01DX009 (ip), vehicle: saline): 110 % of control
- T/C (dose: 4.0 mg/kg/injection, schedule: Q01DX009 (ip), vehicle: saline): 99 % of control
- T/C (dose: 8.0 mg/kg/injection, schedule: Q01DX009 (ip), vehicle: saline): 98 % of control
- T/C (dose: 16.0 mg/kg/injection, schedule: Q01DX009 (ip), vehicle: saline): 93 % of control
- T/C (dose: 32.0 mg/kg/injection, schedule: Q01DX009 (ip), vehicle: saline): 98 % of control

SMILES: c1ccc2cc(Nc3ccc(Nc4ccc5ccccc5c4)cc3)ccc2c1
- T/C (dose: 100.0 mg/kg/injection, schedule: Q01DX001 (ip), vehicle: Klucel (hydroxypropylcellulose) (HPC)): 100 % of control
- T/C (dose: 200.0 mg/kg/injection, schedule: Q01DX001 (ip), vehicle: Klucel (hydroxypropylcellulose) (HPC)): 91 % of control
- T/C (dose: 400.0 mg/kg/injection, schedule: Q01DX001 (ip), vehicle: Klucel (hydroxypropylcellulose) (HPC)): 95 % of control

SMILES: CC(C)(C)c1cc(C(C)(C)O)c2c(c1)C(C)(C)OS2(C)Cl (configuration not stated)
- T/C (dose: 12.5 mg/kg/injection, schedule: Q04DX003 (ip), vehicle: saline with Tween-80): 100 % of control
- T/C (dose: 25.0 mg/kg/injection, schedule: Q04DX003 (ip), vehicle: saline with Tween-80): 100 % of control
- T/C (dose: 50.0 mg/kg/injection, schedule: Q04DX003 (ip), vehicle: saline with Tween-80): 96 % of control

SMILES: CSC(=S)NN=C1CCCCC1
- T/C (dose: 0.78 mg/kg/injection, schedule: Q01DX009 (ip), vehicle: saline with Tween-80): 99 % of control
- T/C (dose: 1.56 mg/kg/injection, schedule: Q01DX009 (ip), vehicle: saline with Tween-80): 105 % of control
- T/C (dose: 3.13 mg/kg/injection, schedule: Q01DX009 (ip), vehicle: saline with Tween-80): 104 % of control
- T/C [3]: 102 % of control

SMILES: Nc1nc(=O)n(CC(=O)c2cccs2)cc1F
- T/C [4]: 100 % of control
- T/C [5]: 90 % of control
- T/C [1]: 95 % of control
- T/C [6]: 86 % of control
- T/C [2]: 100 % of control

SMILES: O=C1SC(c2ccccc2)=S=C1c1ccccc1
- T/C [4]: 108 % of control
- T/C [5]: 123 % of control
- T/C [6]: 123 % of control
- T/C (dose: 400.0 mg/kg/injection, schedule: Q01DX009 (ip), vehicle: saline with Tween-80): 117 % of control

SMILES: Nc1cccc(NC=O)c1
- T/C [7]: 100 % of control
- T/C (dose: 25.0 mg/kg/injection, schedule: Q01DX009 (ip), vehicle: saline with Tween-80): 108 % of control
- T/C [4]: 95 % of control

SMILES: COc1ccc(C(OC)C2CCCCC2N2CCCCC2)cc1 (configuration not stated)
- T/C (dose: 0.5 mg/kg/injection, schedule: Q01DX009 (ip), vehicle: Klucel (hydroxypropylcellulose) (HPC)): 90 % of control
- T/C (dose: 1.0 mg/kg/injection, schedule: Q01DX009 (ip), vehicle: Klucel (hydroxypropylcellulose) (HPC)): 101 % of control
- T/C (dose: 2.0 mg/kg/injection, schedule: Q01DX009 (ip), vehicle: Klucel (hydroxypropylcellulose) (HPC)): 98 % of control

SMILES: CC(O)C(C)(C)CO (configuration not stated)
- T/C [8]: 100 % of control
- T/C [9]: 100 % of control
- T/C [10]: 100 % of control

SMILES: CC(=O)Oc1ccc(N2C(=O)C3C(C2=O)C2c4ccccc4C3C3CCCCN32)cc1 (configuration not stated) (tested in a mixture with another compound)
- T/C (dose: 6.25 mg/kg/injection, schedule: Q04DX003 (ip), vehicle: water): 97 % of control
- T/C (dose: 12.5 mg/kg/injection, schedule: Q04DX003 (ip), vehicle: water): 101 % of control
- T/C [11]: 99 % of control
- T/C [12]: 101 % of control
- T/C [13]: 91 % of control

SMILES: C=CCOCCO
- T/C (dose: 100.0 mg/kg/injection, schedule: Q01DX009 (ip), vehicle: saline): 112 % of control
- T/C [8]: 91 % of control
- T/C (dose: 200.0 mg/kg/injection, schedule: Q01DX009 (ip), vehicle: saline): 112 % of control
- T/C [9]: 95 % of control
- T/C (dose: 400.0 mg/kg/injection, schedule: Q01DX009 (ip), vehicle: saline): 100 % of control
- T/C [10]: 108 % of control

SMILES: Nc1cc2ccncc2c2sc3ccccc3c12
- T/C [8]: 104 % of control
- T/C [9]: 97 % of control
- T/C [10]: 106 % of control

SMILES: Oc1ccc(I)c2cccnc12
- T/C (dose: 62.5 mg/kg/injection, schedule: Q01DX010 (ip), vehicle: carboxymethylcellulose (CMC)): 90 % of control
- T/C (dose: 250.0 mg/kg/injection, schedule: Q01DX010 (ip), vehicle: carboxymethylcellulose (CMC)): 100 % of control
- T/C (dose: 500.0 mg/kg/injection, schedule: Q01DX010 (ip), vehicle: carboxymethylcellulose (CMC)): 110 % of control

SMILES: CN(C(=N)N)c1ccc(C(=O)Oc2ccc([N+](=O)[O-])cc2)cc1
- T/C [14]: 100 % of control
- T/C (dose: 18.75 mg/kg/injection, schedule: Q04DX003 (ip), vehicle: water): 104 % of control
- T/C [15]: 100 % of control
- T/C (dose: 37.5 mg/kg/injection, schedule: Q04DX003 (ip), vehicle: water): 109 % of control
- T/C [16]: 108 % of control
- T/C (dose: 75.0 mg/kg/injection, schedule: Q04DX003 (ip), vehicle: water): 104 % of control and 117 % of control
- T/C (dose: 100.0 mg/kg/injection, schedule: Q01DX009 (ip), vehicle: water): 104 % of control
- T/C [13]: 99 % of control
- T/C (dose: 150.0 mg/kg/injection, schedule: Q04DX003 (ip), vehicle: water): 117 % of control
- T/C (dose: 200.0 mg/kg/injection, schedule: Q04DX003 (ip), vehicle: water): 89 % of control
- T/C (dose: 400.0 mg/kg/injection, schedule: Q04DX003 (ip), vehicle: water): 89 % of control

SMILES: N#Cc1ccccc1CC(O)(c1ccccc1)c1ccccn1 (configuration not stated)
- T/C [4]: 100 % of control
- T/C [5]: 103 % of control
- T/C [6]: 115 % of control

SMILES: Nc1nc(N)c2c(Cl)c(CNc3ccc(Cl)c(Cl)c3)ccc2n1
- T/C [3]: 154 % of control
- T/C (dose: 6.25 mg/kg/injection, schedule: Q01DX009 (ip), vehicle: water): 123 % of control
- T/C [7]: 169 % of control
- T/C [14]: 179 % of control
- T/C [15]: 203 % of control
- T/C [11]: 116 % of control
- T/C [16]: 88 % of control
- T/C [12]: 169 % of control
- T/C [13]: 153 % of control and 173 % of control
- T/C (dose: 300.0 mg/kg/injection, schedule: Q04DX003 (ip), vehicle: water): 86 % of control

SMILES: c1cc2c(cc1C1SCSCS1)OCO2
- T/C (dose: 100.0 mg/kg/injection, schedule: Q04DX003 (ip), vehicle: Klucel (hydroxypropylcellulose) (HPC)): 90 % of control
- T/C (dose: 200.0 mg/kg/injection, schedule: Q04DX003 (ip), vehicle: Klucel (hydroxypropylcellulose) (HPC)): 100 % of control
- T/C (dose: 400.0 mg/kg/injection, schedule: Q04DX003 (ip), vehicle: Klucel (hydroxypropylcellulose) (HPC)): 100 % of control
